Experiments:
Type in all cases: cell-based
[1] = test system: D458Med cells; test: miRNA mimic library screen, CellTiter-Glo cell viability; details: screen of 1,902 miRNA mimics, VCR at IC20
Description: To identify miRNAs that may sensitize VCR response in MB, a high-throughput screening platform was combined with a library of 1,902 chemically synthesized human miRNA mimics. The miRNAs are arrayed in a one-miRNA-one-well format in 96-well microtiter plates. Reverse transfection of Group 3/c-Myc-amplified D458Med cells was performed in triplicate in the presence and absence of a sublethal dose of VCR, which was optimized in four MB cell lines before the screen (FIG. 2A). Cells were subjected to VCR at an IC20 lethal concentration for 72 hours after 48 hours of transfection, and cell viability was measured (FIG. 1A). Candidate miRNAs were prioritized for validation by functional and interaction assays using standard Student t-tests (with pooled variance), false discovery rate (Q=0.5%), and by using the magnitude of response (lowest 2.5 percentile of the distribution of the μVCR/μControl ratios).
miRNA mimic library screen. The primary screen was conducted using MI00200 MISSION microRNA Mimic v.17, in which miRNA mimics were arrayed in a one-miRNA-one-well format in 96-well microtiter plates. […] Cell viability was assessed using CellTiter-Glo (Promega, Madison, Wis., USA) according to the manufacturer's protocol. ath-miR-416 or cel-miR-243 was added as a negative control, whereas siRNA against PLK-1 was used as a positive control in each plate. […]

[2] = test system: 3′-UTR of eIF4E3; test: Dual luciferase 3′-UTR reporter assay (eIF4E3); details: miR-584-5p mimic in comparison with scrambled
Description: Dual luciferase assay. Wild-type or mutant 3′-UTR segments of the eIF4E3 and HDAC1 gene were cloned downstream of the luciferase gene in pGL3-promoter vector at the SacI and SpeI restriction sites. HEK293 cells were cotransfected with Renilla luciferase vector (pRLnull 380) and firefly luciferase vector containing pGL3-wt-eIF4E3; pGL3-mut-eIF4E3; or pGL3-wt-HDAC1, pGL3-mut-HDAC1, or pGL3 overnight and incubated in fresh complete medium for an additional 48 hours after transfection. Cells were then transfected with miRNA mimic (Invitrogen) for 24 hours. Next, cells were harvested with 1× passive lysis buffer (Promega) and luciferase activity was read using GLOMAX 20/20 luminometer (Promega).
Data are z-transformed. The cutoff criteria for each gene are fold change >2, sample intensity >10, and p-value <0.05. […] To validate the gene expression analysis and target prediction results, it was determined whether miR-584-5p reduced HDAC1/eIF4E3 expression by binding to their 3′-untranslated regions (3′-UTRs). […] Also shown are the portion of the miR-584-5p sequence (SEQ ID NO: 15; UAUGGUU) that binds to the wild-type 3′UTR and seed sequence mutant (SEQ ID NO: 16; […], top panel; and SEQ ID NO: 17; […]; bottom panel). Also shown is miR-584-5p seed sequence mutated sequences. […] The p-values were calculated using standard Student t-tests. […] The p-values were calculated using standard Student t-tests.

[3] = test system: MB cells; test: FACS analysis of cell cycle progression; details: vs miR-NC or scramble-siRNA
Description: To gain more insight into the tumor-suppressing and VCR-sensitizing activities of miR-584-5p, it was determined how the miR-584-5p mimic affected cell cycle progression of MB cells. […] Bar graphs show DNA histograms quantified using the FlowJo software. In FIG. 9A, the p-values were determined by two-way ANOVA followed by Tukey's multiple-comparisons test. Error bars represent mean±SEM. […] In FIG. 9B, the p-values were calculated using standard Student t-tests. Error bars represent mean±SEM. […] Next, it was determined whether miR-584-5p's effect on cell cycle progression may be mediated via its target genes eIF4E3/HDAC1. […] Bar graphs show dot plots quantified using the FlowJo software. Next, it was tested whether miR-584-5p-induced cell cycle arrest led to apoptosis of MB cells. […] In FIG. 8C, the bar graphs reflect DNA histograms quantified using the FlowJo software and in FIG. 8D and FIG. 9C, the bar graphs show dot plots quantified using the FlowJo software. The p-values for panels 8A-D and FIG. 9C were determined by two-way ANOVA followed by Tukey's multiple-comparisons test. Error bars represent mean±SEM. ****, p<0.0001; ***, p<0.001; **, p<0.01; *, p<0.05.
Flow cytometry analysis of cell cycle and apoptosis. […] Cells were analyzed using either FACScantoII or LSRII cytometers, and data were quantified using FlowJo 10.2 software.

[4] = test system: MB stem cells; test: Medullosphere (tumor sphere) formation in serum-free stem cell media; details: D556Med cells
Description: Several research groups have posited the presence of tumor-initiating cells in MBs (Manoranjan, B. et al. Pediatr Res 71, 516-522, (2012)). Moreover, the tumor-initiating cells in general have not responded to radiation and chemotherapy drugs (Manoranj an, B. et al. Pediatr Res 71, 516-522, (2012)). Therefore, it was tested whether miR-584 may inhibit MB tumor-initiating cell proliferation. Consistent with the characteristics of tumor-initiating cells, MB cells cultured in serum-free stem cell media formed tumor spheres that were serially passaged for many cycles (FIG. 14A). Bar graphs show number and size of medullospheres obtained from D556Med cells transfected with miR-NC or miR-584-5p mimic. The p-value was calculated using a standard Student t-test. Error bars represent mean±SEM. […] The p-value was calculated using one-way ANOVA followed by Sidak's multiple-comparisons test. Error bars represent mean±SEM. These findings are highly significant because, this study is one of the first to propose a role for miR-584-5p and its target genes in regulating MB stem cell proliferation.

Substance: miR-584-5p: microRNA mimic; nucleotide sequence UUAUGGUUUGCCUGGGACUGAG (SEQ ID NO: 1); purchased from Thermofisher (chemistry not given here)
- difference in cell viability in VCR-treated MB cells in comparison with untreated cells [1]: highest magnitude of difference in cell viability
- luciferase activity, eIF4E3 3′-UTR with mutated miR-584-5p binding sites [2]: no change in luciferase activity
- luciferase activity, wild-type eIF4E3 3′-UTR construct [2]: significantly reduced
- cell cycle progression [3]: G2/M cell cycle arrest
- number and size of medullospheres / MB stem cell proliferation [4]: significantly smaller and fewer spheres
